# Source: the kinase profiling compilation of Christmann-Franck et al. (2016)
# Legend:
# Experiment in all cases: radiometric filter-binding kinase assay, Kinase HotSpot
# Details in all cases: compound 0.5 µM; ATP 10 µM
# MKNK2 (human) = MKNK2 (human) (UniProt Q9HBH9)
# INSRR (human) = INSRR (human) (UniProt P14616)
# MAPKAPK5 (human) = MAPKAPK5 (human) (UniProt Q8IW41)
# GRK6 (human) = GRK6 (human) (UniProt P43250)
# CHUK (human) = CHUK (human) (UniProt O15111)
# CAMK1 (human) = CAMK1 (human) (UniProt Q14012)
# PAK4 (human) = PAK4 (human) (UniProt O96013)
# MET (human) = MET (human) (UniProt P08581)
# MAPK13 (human) = MAPK13 (human) (UniProt O15264)
# PAK3 (human) = PAK3 (human) (UniProt O75914)
# RPS6KB2 (human) = RPS6KB2 (human) (UniProt Q9UBS0)
# CDK5 CDK5R1 p25 (human) = CDK5 CDK5R1 p25 (human) (UniProt Q00535+Q15078)
# VRK1 (human) = VRK1 (human) (UniProt Q99986)
# Sequence of VRK1 (human) (Q99986 whole entry, looked up): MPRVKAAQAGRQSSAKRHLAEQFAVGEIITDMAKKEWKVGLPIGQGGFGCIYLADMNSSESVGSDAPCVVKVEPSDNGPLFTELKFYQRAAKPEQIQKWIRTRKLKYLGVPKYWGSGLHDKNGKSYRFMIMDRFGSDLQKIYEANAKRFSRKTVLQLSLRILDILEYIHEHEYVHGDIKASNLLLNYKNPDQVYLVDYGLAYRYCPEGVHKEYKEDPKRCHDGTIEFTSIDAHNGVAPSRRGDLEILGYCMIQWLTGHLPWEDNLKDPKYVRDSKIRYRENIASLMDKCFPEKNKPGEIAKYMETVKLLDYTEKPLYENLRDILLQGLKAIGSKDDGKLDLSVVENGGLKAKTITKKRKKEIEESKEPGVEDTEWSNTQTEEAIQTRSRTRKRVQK
# SRPK1 (human) = SRPK1 (human) (UniProt Q96SB4)
# PAK1 (human) = PAK1 (human) (UniProt Q13153)
# ROCK2 (human) = ROCK2 (human) (UniProt O75116)
# FER (human) = FER (human) (UniProt P16591)
# CLK3 (human) = CLK3 (human) (UniProt P49761)
# CDC42BPA (human) = CDC42BPA (human) (UniProt Q5VT25)
# PAK2 (human) = PAK2 (human) (UniProt Q13177)
# WNK3 (human) = WNK3 (human) (UniProt Q9BYP7)
# Sequence of WNK3 (human) (Q9BYP7 whole entry, looked up): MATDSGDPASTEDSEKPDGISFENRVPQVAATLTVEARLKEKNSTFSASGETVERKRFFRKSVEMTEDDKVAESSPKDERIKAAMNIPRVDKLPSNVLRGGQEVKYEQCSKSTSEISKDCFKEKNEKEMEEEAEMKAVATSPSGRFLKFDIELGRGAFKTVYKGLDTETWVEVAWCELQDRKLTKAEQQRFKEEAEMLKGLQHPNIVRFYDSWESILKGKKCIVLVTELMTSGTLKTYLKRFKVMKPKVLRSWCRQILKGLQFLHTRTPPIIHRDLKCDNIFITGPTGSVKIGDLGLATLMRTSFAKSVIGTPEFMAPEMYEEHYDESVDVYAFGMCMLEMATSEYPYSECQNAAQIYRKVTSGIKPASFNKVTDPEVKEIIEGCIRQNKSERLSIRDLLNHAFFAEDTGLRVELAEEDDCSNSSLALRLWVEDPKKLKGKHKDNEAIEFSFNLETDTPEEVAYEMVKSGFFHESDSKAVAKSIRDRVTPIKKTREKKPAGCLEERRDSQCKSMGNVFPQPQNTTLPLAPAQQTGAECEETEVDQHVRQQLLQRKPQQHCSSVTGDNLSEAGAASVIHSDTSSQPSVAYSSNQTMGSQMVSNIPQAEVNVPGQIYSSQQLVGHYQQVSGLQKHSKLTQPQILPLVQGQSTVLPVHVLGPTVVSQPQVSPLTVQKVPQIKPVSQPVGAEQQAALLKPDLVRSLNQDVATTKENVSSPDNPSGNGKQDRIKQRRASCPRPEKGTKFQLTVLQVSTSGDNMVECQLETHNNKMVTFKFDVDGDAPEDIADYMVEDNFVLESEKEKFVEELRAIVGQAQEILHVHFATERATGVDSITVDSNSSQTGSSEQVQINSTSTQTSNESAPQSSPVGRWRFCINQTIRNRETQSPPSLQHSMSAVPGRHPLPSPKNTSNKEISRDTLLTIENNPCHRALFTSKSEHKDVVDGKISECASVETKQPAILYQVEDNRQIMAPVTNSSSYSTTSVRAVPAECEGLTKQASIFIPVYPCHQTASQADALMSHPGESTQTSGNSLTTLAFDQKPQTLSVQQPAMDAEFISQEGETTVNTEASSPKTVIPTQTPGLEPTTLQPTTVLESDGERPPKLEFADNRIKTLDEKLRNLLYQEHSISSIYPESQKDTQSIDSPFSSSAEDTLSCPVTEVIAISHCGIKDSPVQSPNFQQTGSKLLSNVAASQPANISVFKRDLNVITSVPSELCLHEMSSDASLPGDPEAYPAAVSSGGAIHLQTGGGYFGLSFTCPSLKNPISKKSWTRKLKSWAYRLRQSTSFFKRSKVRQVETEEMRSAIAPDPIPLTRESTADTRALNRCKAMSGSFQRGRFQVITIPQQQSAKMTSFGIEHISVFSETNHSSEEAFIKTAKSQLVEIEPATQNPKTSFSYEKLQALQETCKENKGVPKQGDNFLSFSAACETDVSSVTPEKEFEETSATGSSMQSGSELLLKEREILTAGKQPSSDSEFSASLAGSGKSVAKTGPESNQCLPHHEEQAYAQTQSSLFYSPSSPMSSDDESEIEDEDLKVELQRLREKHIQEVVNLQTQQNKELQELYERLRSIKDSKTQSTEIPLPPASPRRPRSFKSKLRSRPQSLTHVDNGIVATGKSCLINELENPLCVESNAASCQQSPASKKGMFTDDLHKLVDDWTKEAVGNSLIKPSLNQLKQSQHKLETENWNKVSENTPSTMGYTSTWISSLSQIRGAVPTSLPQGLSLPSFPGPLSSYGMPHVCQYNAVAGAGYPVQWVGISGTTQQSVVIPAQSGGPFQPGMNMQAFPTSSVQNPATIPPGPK
# MAPK9 (human) = MAPK9 (human) (UniProt P45984)
# EPHA2 (human) = EPHA2 (human) (UniProt P29317)
# MAP3K3 (human) = MAP3K3 (human) (UniProt Q99759)
# PRKX (human) = PRKX (human) (UniProt P51817)
# Sequence of PRKX (human) (P51817 whole entry, looked up): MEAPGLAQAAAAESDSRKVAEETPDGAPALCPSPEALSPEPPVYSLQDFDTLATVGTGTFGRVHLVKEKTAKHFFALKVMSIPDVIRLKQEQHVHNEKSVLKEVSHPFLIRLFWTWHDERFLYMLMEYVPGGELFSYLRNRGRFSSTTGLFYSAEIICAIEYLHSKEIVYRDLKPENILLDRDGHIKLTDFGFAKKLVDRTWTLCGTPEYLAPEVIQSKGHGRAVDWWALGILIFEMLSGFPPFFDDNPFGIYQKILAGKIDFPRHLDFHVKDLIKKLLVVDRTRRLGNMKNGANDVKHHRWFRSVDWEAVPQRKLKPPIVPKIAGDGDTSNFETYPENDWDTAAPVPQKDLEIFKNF
# PRKCB2 (human) = PRKCB2 (human) (UniProt P05771)
# PDGFRB (human) = PDGFRB (human) (UniProt P09619)
# SYK (human) = SYK (human) (UniProt P43405)
# AKT3 (human) = AKT3 (human) (UniProt Q9Y243)
# PRKG2 (human) = PRKG2 (human) (UniProt Q13237)
# Sequence of PRKG2 (human) (Q13237 whole entry, looked up): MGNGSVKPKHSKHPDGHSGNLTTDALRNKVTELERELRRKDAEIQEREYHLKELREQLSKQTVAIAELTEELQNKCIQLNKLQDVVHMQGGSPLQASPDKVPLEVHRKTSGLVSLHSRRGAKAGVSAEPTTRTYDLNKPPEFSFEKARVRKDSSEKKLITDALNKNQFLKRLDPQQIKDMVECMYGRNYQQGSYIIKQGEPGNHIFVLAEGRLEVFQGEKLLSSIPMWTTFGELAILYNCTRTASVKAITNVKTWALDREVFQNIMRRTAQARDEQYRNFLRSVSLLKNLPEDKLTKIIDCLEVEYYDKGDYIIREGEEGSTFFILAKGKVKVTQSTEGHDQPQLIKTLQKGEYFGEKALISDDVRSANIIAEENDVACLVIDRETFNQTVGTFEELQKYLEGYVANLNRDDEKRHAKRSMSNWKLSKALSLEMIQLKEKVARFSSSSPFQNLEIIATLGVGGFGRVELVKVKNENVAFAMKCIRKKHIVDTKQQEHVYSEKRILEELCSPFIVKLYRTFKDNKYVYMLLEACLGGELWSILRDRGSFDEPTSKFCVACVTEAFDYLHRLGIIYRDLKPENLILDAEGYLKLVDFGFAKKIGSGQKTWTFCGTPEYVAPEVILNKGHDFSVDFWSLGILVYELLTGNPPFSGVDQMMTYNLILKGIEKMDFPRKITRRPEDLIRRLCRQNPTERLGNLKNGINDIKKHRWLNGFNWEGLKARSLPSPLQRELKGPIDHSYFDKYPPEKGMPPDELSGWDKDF
# CDK9 CCNT1 (human) = CDK9 CCNT1 (human) (UniProt P50750+O60563)
# CSNK1G1 (human) = CSNK1G1 (human) (UniProt Q9HCP0)
# FGR (human) = FGR (human) (UniProt P09769)
# Sequence of FGR (human) (P09769 whole entry, looked up): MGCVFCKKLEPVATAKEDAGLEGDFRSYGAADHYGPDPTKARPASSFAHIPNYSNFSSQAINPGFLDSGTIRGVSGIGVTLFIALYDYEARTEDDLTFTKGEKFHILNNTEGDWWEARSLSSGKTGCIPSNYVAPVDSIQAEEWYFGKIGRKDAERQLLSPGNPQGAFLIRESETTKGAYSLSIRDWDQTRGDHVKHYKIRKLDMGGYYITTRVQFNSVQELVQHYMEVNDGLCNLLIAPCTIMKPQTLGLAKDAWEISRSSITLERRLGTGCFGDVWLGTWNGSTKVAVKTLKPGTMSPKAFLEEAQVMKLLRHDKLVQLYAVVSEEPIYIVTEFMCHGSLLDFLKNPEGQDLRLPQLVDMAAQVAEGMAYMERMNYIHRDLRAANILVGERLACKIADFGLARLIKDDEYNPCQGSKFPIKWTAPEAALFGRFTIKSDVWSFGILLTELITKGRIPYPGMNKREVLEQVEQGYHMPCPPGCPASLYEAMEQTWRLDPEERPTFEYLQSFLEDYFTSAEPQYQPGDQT
# EPHA5 (human) = EPHA5 (human) (UniProt P54756)
# ADRBK2 (human) = ADRBK2 (human) (UniProt P35626)
# PRKCI (human) = PRKCI (human) (UniProt P41743)
# ALK (human) = ALK (human) (UniProt Q9UM73)
# IKBKB (human) = IKBKB (human) (UniProt O14920)
# Sequence of IKBKB (human) (O14920 whole entry, looked up): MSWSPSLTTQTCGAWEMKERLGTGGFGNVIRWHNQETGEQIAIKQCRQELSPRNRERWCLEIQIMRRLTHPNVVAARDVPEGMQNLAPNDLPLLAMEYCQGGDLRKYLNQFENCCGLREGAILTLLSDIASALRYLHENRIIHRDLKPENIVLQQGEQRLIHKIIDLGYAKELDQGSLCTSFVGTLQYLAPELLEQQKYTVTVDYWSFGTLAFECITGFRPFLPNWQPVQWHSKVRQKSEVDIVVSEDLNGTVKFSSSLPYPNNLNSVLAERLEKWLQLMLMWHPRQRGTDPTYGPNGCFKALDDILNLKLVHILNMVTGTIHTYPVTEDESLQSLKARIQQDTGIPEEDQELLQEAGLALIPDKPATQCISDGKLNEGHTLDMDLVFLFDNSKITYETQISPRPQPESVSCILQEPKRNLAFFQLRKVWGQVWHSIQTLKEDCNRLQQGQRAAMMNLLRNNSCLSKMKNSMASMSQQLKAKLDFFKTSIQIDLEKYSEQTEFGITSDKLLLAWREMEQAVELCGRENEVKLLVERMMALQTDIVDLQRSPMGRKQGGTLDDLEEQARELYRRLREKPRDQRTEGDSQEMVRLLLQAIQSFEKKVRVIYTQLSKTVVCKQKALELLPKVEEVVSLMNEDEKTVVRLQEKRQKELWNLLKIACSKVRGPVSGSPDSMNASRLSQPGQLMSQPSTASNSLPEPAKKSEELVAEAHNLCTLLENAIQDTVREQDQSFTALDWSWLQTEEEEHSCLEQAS
# TSSK2 (human) = TSSK2 (human) (UniProt Q96PF2)
# MAPK8 (human) = MAPK8 (human) (UniProt P45983)
# RPS6KA4 KD2 (human) = RPS6KA4 KD2 (human) (UniProt O75676)
# ROCK1 (human) = ROCK1 (human) (UniProt Q13464)
# Sequence of MAPKAPK5 (human) (Q8IW41 whole entry, looked up): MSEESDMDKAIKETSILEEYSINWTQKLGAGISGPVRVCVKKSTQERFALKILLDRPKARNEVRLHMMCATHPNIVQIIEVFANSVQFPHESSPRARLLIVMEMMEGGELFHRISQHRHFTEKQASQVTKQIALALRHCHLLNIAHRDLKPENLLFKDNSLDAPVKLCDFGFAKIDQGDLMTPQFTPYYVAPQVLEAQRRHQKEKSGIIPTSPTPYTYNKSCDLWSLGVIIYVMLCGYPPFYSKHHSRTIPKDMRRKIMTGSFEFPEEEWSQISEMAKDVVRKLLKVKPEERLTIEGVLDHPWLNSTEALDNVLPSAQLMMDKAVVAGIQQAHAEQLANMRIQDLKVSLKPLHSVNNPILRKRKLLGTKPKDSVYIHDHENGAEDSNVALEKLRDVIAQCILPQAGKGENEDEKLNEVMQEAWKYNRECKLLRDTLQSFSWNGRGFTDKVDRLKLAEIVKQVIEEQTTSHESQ
compound,measurement,setting,value
O=C1NC(=O)c2cc(Nc3ccc(F)cc3)c(Nc3ccc(F)cc3)cc21,residual activity,MKNK2 (human),101%
same,residual activity,INSRR (human),111%
same,residual activity,MAPKAPK5 (human),93.4%
same,residual activity,GRK6 (human),98.7%
same,residual activity,CHUK (human),99.2%
same,residual activity,CAMK1 (human),104%
same,residual activity,PAK4 (human),95.1%
same,residual activity,MET (human),96.7%
same,residual activity,MAPK13 (human),99.4%
same,residual activity,PAK3 (human),99.4%
same,residual activity,RPS6KB2 (human),93.9%
same,residual activity,CDK5 CDK5R1 p25 (human),85.9%
same,residual activity,VRK1 (human),93%
same,residual activity,SRPK1 (human),102%
same,residual activity,PAK1 (human),95.5%
same,residual activity,ROCK2 (human),92.8%
same,residual activity,FER (human),96.4%
same,residual activity,CLK3 (human),93.7%
same,residual activity,CDC42BPA (human),92.3%
same,residual activity,PAK2 (human),98.5%
same,residual activity,WNK3 (human),92.7%
same,residual activity,MAPK9 (human),61.4%
same,residual activity,EPHA2 (human),94.3%
same,residual activity,MAP3K3 (human),102%
same,residual activity,PRKX (human),103%
same,residual activity,PRKCB2 (human),15.5%
same,residual activity,PDGFRB (human),93.9%
same,residual activity,SYK (human),98.8%
same,residual activity,AKT3 (human),100%
same,residual activity,PRKG2 (human),83.3%
same,residual activity,CDK9 CCNT1 (human),95.4%
same,residual activity,CSNK1G1 (human),96.3%
same,residual activity,FGR (human),96.3%
same,residual activity,EPHA5 (human),95.4%
same,residual activity,ADRBK2 (human),104%
same,residual activity,PRKCI (human),89%
same,residual activity,ALK (human),92.6%
same,residual activity,IKBKB (human),95.6%
same,residual activity,TSSK2 (human),97.2%
same,residual activity,MAPK8 (human),91.4%
same,residual activity,RPS6KA4 KD2 (human),102%
same,residual activity,ROCK1 (human),96.7%
O=C1NC(=O)c2c1c1c3ccccc3[nH]c1c1[nH]c3cc(Br)ccc3c21,residual activity,MKNK2 (human),44%
same,residual activity,INSRR (human),85.8%
same,residual activity,MAPKAPK5 (human),86.2%
same,residual activity,GRK6 (human),108%
same,residual activity,CHUK (human),81.5%
same,residual activity,CAMK1 (human),99%
same,residual activity,PAK4 (human),96.4%
same,residual activity,MET (human),76.6%
same,residual activity,MAPK13 (human),99.1%
same,residual activity,PAK3 (human),97.7%
same,residual activity,RPS6KB2 (human),83.9%
same,residual activity,CDK5 CDK5R1 p25 (human),43.4%
same,residual activity,VRK1 (human),92.3%
same,residual activity,SRPK1 (human),86.4%
same,residual activity,PAK1 (human),87.8%
same,residual activity,ROCK2 (human),72.7%
same,residual activity,FER (human),88.9%
same,residual activity,CLK3 (human),93.4%
same,residual activity,CDC42BPA (human),97.5%
same,residual activity,PAK2 (human),101%
same,residual activity,WNK3 (human),92.3%
same,residual activity,MAPK9 (human),99.6%
same,residual activity,EPHA2 (human),99.2%
same,residual activity,MAP3K3 (human),105%
same,residual activity,PRKX (human),85.1%
same,residual activity,PRKCB2 (human),72.8%
same,residual activity,PDGFRB (human),82.6%
same,residual activity,SYK (human),58.3%
same,residual activity,AKT3 (human),91.1%
same,residual activity,PRKG2 (human),29.7%
same,residual activity,CDK9 CCNT1 (human),87.5%
same,residual activity,CSNK1G1 (human),96.2%
same,residual activity,FGR (human),88.8%
same,residual activity,EPHA5 (human),90.5%
same,residual activity,ADRBK2 (human),95.2%
same,residual activity,PRKCI (human),96.2%
same,residual activity,ALK (human),94%
same,residual activity,IKBKB (human),92.2%
same,residual activity,TSSK2 (human),96.9%
same,residual activity,MAPK8 (human),85.2%
same,residual activity,RPS6KA4 KD2 (human),75.9%
same,residual activity,ROCK1 (human),93.9%
